Patent US11878965B2, “Inhibitors of peptidylarginine deiminases” (Gilead Sciences, Inc., priority 2020, dated 2024)

Molecular target: human PAD4 (Homo sapiens (Human), UniProt Q9UM07)
Experiment: In Vitro PAD4 BAEE Biochemical Assay
Conditions: human PAD4, BAEE substrate; 5 nM PAD4, 2 mM calcium chloride, 3 mM BAEE; geometric mean of multiple experiments
Procedure, shortened: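 Deimination of BAEE substrate (3 mM) measured as ammonia via o-phthalaldehyde–DTT isoindole fluorescence, 405/535 nm. Tag-free bacterially expressed human PAD4 at 5 nM with 2 mM calcium chloride, pH 7.6 MOPS buffer, 30 min compound preincubation then 2 h reaction, both at 25 °C.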

human PAD4, sequence (Q9UM07 2-663): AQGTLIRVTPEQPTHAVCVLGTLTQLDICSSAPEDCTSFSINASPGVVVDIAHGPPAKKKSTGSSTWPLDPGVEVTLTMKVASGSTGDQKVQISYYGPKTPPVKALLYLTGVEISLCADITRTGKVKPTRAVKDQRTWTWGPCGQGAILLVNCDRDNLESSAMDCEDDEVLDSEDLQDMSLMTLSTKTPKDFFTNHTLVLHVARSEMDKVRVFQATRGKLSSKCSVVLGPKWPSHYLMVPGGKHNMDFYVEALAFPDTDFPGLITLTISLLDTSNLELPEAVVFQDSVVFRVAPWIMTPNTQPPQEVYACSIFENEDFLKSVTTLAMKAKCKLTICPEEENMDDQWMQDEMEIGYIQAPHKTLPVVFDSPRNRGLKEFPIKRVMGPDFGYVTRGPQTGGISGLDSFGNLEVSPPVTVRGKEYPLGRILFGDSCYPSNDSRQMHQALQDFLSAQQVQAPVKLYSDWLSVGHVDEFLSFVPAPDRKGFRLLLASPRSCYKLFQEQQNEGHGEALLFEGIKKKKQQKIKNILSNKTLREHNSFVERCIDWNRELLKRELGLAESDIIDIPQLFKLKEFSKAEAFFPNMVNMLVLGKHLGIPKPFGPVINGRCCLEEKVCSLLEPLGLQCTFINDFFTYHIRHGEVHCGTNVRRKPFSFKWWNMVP

Structure (SMILES)	IC50 [nM]
COC(=O)N(C)c1ccc2cc(-c3nc4cc(C(=O)N5[C@H]6CC[C@@H]5[C@H](N)C6)cc(OC)c4n3C)n(CC3CC3)c2c1 [Example 114, methyl (2-(5-((1R,2R,4S)-2-amino-7-azabicyclo[2.2.1]heptane-7-carbonyl)-7-methoxy-1-methyl-1H-benzo[d]imidazol-2-yl)-1-(cyclopropylmethyl)-1H-indol-6-yl)(methyl)carbamate]	34.5
CCN(C(C)=O)c1ccc2cc(-c3nc4cc(C(=O)N5CCC[C@@H](N)C5)cc(OC)c4n3C)n(CC3CC3)c2n1 [Example 115, (R)-N-(2-(5-(3-aminopiperidine-1-carbonyl)-7-methoxy-1-methyl-1H-benzo[d]imidazol-2-yl)-1-(cyclopropylmethyl)-1H-pyrrolo [2,3-b]pyridin-6-yl)-N-ethylacetamide]	379
CNC(=O)N(C)c1ccc2cc(-c3nc4cc(C(=O)N5CCC[C@@H](N)C5)cc(OC)c4n3C)n(CC3CC3)c2n1 [Example 116, (R)-1-(2-(5-(3-aminopiperidine-1-carbonyl)-7-methoxy-1-methyl-1H-benzo[d]imidazol-2-yl)-1-(cyclopropylmethyl)-1H-pyrrolo[2,3-b]pyridin-6-yl)-1,3-dimethylurea]	496
COc1cc(C(=O)N2CCC[C@@H](N)C2)cc2nc(-c3cc4ccc(N(C)C(=O)N(C)C)nc4n3CC3CC3)n(C)c12 [Example 117, (R)-1-(2-(5-(3-aminopiperidine-1-carbonyl)-7-methoxy-1-methyl-1H-benzo[d]imidazol-2-yl)-1-(cyclopropylmethyl)-1H-pyrrolo[2,3-b]pyridin-6-yl)-1,3,3-trimethylurea]	1120
COc1cc(C(=O)N2[C@H]3CC[C@@H]2[C@H](N)C3)cc2nc(-c3cc4ccc([C@@H](C)NC(C)=O)nc4n3CC3CC3)n(C)c12 [Example 118, N-((R)-1-(2-(5-((1R,2R,4S)-2-amino-7-azabicyclo[2.2.1]heptane-7-carbonyl)-7-methoxy-1-methyl-1H-benzo[d]imidazol-2-yl)-1-(cyclopropylmethyl)-1H-pyrrolo[2,3-b]pyridin-6-yl)ethyl)acetamide]	45.6
COc1cc(C(=O)N2CCC[C@@H](N)C2)cc2nc(-c3cc4ccc([C@@H](C)NC(=O)C(C)(C)C)nc4n3CC3CC3)n(C)c12 [Example 119, N-((R)-1-(2-(5-((R)-3-aminopiperidine-1-carbonyl)-7-methoxy-1-methyl-1H-benzo[d]imidazol-2-yl)-1-(cyclopropylmethyl)-1H-pyrrolo[2,3-b]pyridin-6-yl)ethyl)pivalamide]	78.4
COc1cc(C(=O)N2[C@H]3CC[C@@H]2[C@H](N)C3)cc2nc(-c3cc4ccc([C@@H](C)NC(=O)C(C)(C)C)nc4n3CC3CC3)n(C)c12 [Example 120, N—((R)-1-(2-(5-((1R,2R,4S)-2-amino-7-azabicyclo[2.2.1]heptane-7-carbonyl)-7-methoxy-1-methyl-1H-benzo[d]imidazol-2-yl)-1-(cyclopropylmethyl)-1H-pyrrolo[2,3-b]pyridin-6-yl)ethyl)pivalamide]	60.6
COc1cc(C(=O)N2[C@H]3CC[C@@H]2[C@H](N)C3)cc2nc(-c3cc4ccc([C@@H](C)NC(=O)C56CC(F)(C5)C6)nc4n3CC3CC3)n(C)c12 [Example 121, N-((R)-1-(2-(5-((1R,2R,4S)-2-amino-7-azabicyclo[2.2.1]heptane-7-carbonyl)-7-methoxy-1-methyl-1H-benzo[d]imidazol-2-yl)-1-(cyclopropylmethyl)-1H-pyrrolo[2,3-b]pyridin-6-yl)ethyl)-3-fluorobicyclo[1.1.1]pentane-1-carboxamide]	46.3
COc1cc(C(=O)N2CCC[C@@H](N)C2)cc2nc(-c3cc4ccc([C@@H](C)NC(=O)C56CC(F)(C5)C6)nc4n3CC3CC3)n(C)c12 [Example 122, N-((R)-1-(2-(5-((R)-3-aminopiperidine-1-carbonyl)-7-methoxy-1-methyl-1H-benzo[d]imidazol-2-yl)-1-(cyclopropylmethyl)-1H-pyrrolo[2,3-b]pyridin-6-yl)ethyl)-3-fluorobicyclo[1.1.1]pentane-1-carboxamide]	93.9
COc1cc(C(=O)N2[C@H]3CC[C@@H]2[C@H](N)C3)cc2nc(-c3cc4ccc([C@@H](C)NC(=O)c5ccccc5)nc4n3CC3CC3)n(C)c12 [Example 123, N-((R)-1-(2-(5-((1R,2R,4S)-2-amino-7-azabicyclo[2.2.1]heptane-7-carbonyl)-7-methoxy-1-methyl-1H-benzo[d]imidazol-2-yl)-1-(cyclopropylmethyl)-1H-pyrrolo[2,3-b]pyridin-6-yl)ethyl)benzamide]	29.2
COc1cc(C(=O)N2CCC[C@@H](N)C2)cc2nc(-c3cc4ccc([C@@H](C)NC(=O)c5ccccc5)nc4n3CC3CC3)n(C)c12 [Example 124, N-((R)-1-(2-(5-((R)-3-aminopiperidine-1-carbonyl)-7-methoxy-1-methyl-1H-benzo[d]imidazol-2-yl)-1-(cyclopropylmethyl)-1H-pyrrolo[2,3-b]pyridin-6-yl)ethyl)benzamide]	54.6
COc1cc(C(=O)N2CCC[C@@H](N)C2)cc2nc(-c3cc4ccc([C@@H](C)NC(=O)C56CC(F)(C5)C6)nc4n3CC3CC3)n(C3CC3)c12 [Example 125, N-((R)-1-(2-(5-((R)-3-aminopiperidine-1-carbonyl)-1-cyclopropyl-7-methoxy-1H-benzo[d]imidazol-2-yl)-1-(cyclopropylmethyl)-1H-pyrrolo[2,3-b]pyridin-6-yl)ethyl)-3-fluorobicyclo[1.1.1]pentane-1-carboxamide]	71.3
COc1cc(C(=O)N2CCC[C@@H](N)C2)cc2nc(-c3cc4ccc([C@@H](C)NC(=O)c5ccccc5)nc4n3CC3CC3)n(C3CC3)c12 [Example 126, N-((R)-1-(2-(5-((R)-3-aminopiperidine-1-carbonyl)-1-cyclopropyl-7-methoxy-1H-benzo[d]imidazol-2-yl)-1-(cyclopropylmethyl)-1H-pyrrolo[2,3-b]pyridin-6-yl)ethyl)benzamide]	90.8
COc1cc(C(=O)N2[C@H]3CC[C@@H]2[C@H](N)C3)cc2nc(-c3cc4ccc([C@@H](C)NC(=O)C(C)(C)C)nc4n3CC3CC3)n(C3CC3)c12 [Example 127, N-((R)-1-(2-(5-((1R,2R,4S)-2-amino-7-azabicyclo[2.2.1]heptane-7-carbonyl)-1-cyclopropyl-7-methoxy-1H-benzo[d]imidazol-2-yl)-1-(cyclopropylmethyl)-1H-pyrrolo[2,3-b]pyridin-6-yl)ethyl)pivalamide]	63.7
COc1cc(C(=O)N2CCC[C@@H](N)C2)cc2nc(-c3cc4ccc([C@@H](C)NC(=O)C(C)(C)C)nc4n3CC3CC3)n(C3CC3)c12 [Example 128, N-((R)-1-(2-(5-((R)-3-aminopiperidine-1-carbonyl)-1-cyclopropyl-7-methoxy-1H-benzo[d]imidazol-2-yl)-1-(cyclopropylmethyl)-1H-pyrrolo[2,3-b]pyridin-6-yl)ethyl)pivalamide]	61.5
COc1cc(C(=O)N2[C@H]3CC[C@@H]2[C@H](N)C3)cc2nc(-c3cc4ccc([C@@H](C)NC(=O)c5ccccc5)nc4n3CC3CC3)n(C3CC3)c12 [Example 129, N-((R)-1-(2-(5-((1R,2R,4S)-2-amino-7-azabicyclo[2.2.1]heptane-7-carbonyl)-1-cyclopropyl-7-methoxy-1H-benzo[d]imidazol-2-yl)-1-(cyclopropylmethyl)-1H-pyrrolo[2,3-b]pyridin-6-yl)ethyl)benzamide]	86
COc1cc(C(=O)N2[C@H]3CC[C@@H]2[C@H](N)C3)cc2nc(-c3cc4ccc([C@@H](C)NC(=O)C56CC(F)(C5)C6)nc4n3CC3CC3)n(C3CC3)c12 [Example 130, N-((R)-1-(2-(5-((1R,2R,4S)-2-amino-7-azabicyclo[2.2.1]heptane-7-carbonyl)-1-cyclopropyl-7-methoxy-1H-benzo[d]imidazol-2-yl)-1-(cyclopropylmethyl)-1H-pyrrolo[2,3-b]pyridin-6-yl)ethyl)-3-fluorobicyclo[1.1.1]pentane-1-carboxamide]	45.1
COc1cc(C(=O)N2[C@H]3CC[C@@H]2[C@H](N)C3)cc2nc(-c3cc4ccc([C@@H](C)NC(C)=O)nc4n3CC3CC3)n(C3CC3)c12 [Example 131, N-((R)-1-(2-(5-((1R,2R,4S)-2-amino-7-azabicyclo[2.2.1]heptane-7-carbonyl)-1-cyclopropyl-7-methoxy-1H-benzo[d]imidazol-2-yl)-1-(cyclopropylmethyl)-1H-pyrrolo[2,3-b]pyridin-6-yl)ethyl)acetamide]	25.9
COc1cc(C(=O)N2CCC[C@@H](N)C2)cc2nc(-c3cc4ccc([C@@H](C)NC(C)=O)nc4n3CC3CC3)n(C3CC3)c12 [Example 132, N-((R)-1-(2-(5-((R)-3-aminopiperidine-1-carbonyl)-1-cyclopropyl-7-methoxy-1H-benzo[d]imidazol-2-yl)-1-(cyclopropylmethyl)-1H-pyrrolo[2,3-b]pyridin-6-yl)ethyl)acetamide]	70.7
COc1cc(C(=O)N2[C@H]3CC[C@@H]2[C@H](N)C3)cc2nc(-c3cc4ccc([C@@H](C)NC(=O)C56CC(F)(C5)C6)cc4n3CC3CC3)n(C)c12 [Example 133, N-((R)-1-(2-(5-((1R,2R,4S)-2-amino-7-azabicyclo[2.2.1]heptane-7-carbonyl)-7-methoxy-1-methyl-1H-benzo[d]imidazol-2-yl)-1-(cyclopropylmethyl)-1H-indol-6-yl)ethyl)-3-fluorobicyclo[1.1.1]pentane-1-carboxamide]	32.2
COc1cc(C(=O)N2[C@H]3CC[C@@H]2[C@H](N)C3)cc2nc(-c3cc4ccc([C@@H](C)NC(=O)C56CC(C#N)(C5)C6)cc4n3CC3CC3)n(C)c12 [Example 134, N-((R)-1-(2-(5-((1R,2R,4S)-2-amino-7-azabicyclo[2.2.1]heptane-7-carbonyl)-7-methoxy-1-methyl-1H-benzo[d]imidazol-2-yl)-1-(cyclopropylmethyl)-1H-indol-6-yl)ethyl)-3-cyanobicyclo[1.1.1]pentane-1-carboxamide]	18.2
